{"source": "patent US6525001B1", "about": "“Substituted pyrimidine and pyridine herbicides” (Mid-American Commercialization Corporation, priority 1997, dated 2003)", "experiment_in_all_cases": "Test B pre-/postemergence", "assay_type_in_all_cases": "in vivo", "design_in_all_cases": "key: 0 is no effect; 10 is complete control", "key": {"[1]": {"system": "blackgrass (Alopecurus myosuroides)", "method_in_brief": "(§1)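 Compounds in a surfactant-containing, non-phytotoxic solvent blend are applied to freshly planted seed (preemergence) and, concurrently, to seedlings of 2 to 18 cm at 1–4 leaves (postemergence). Plants stay in the greenhouse twelve to sixteen days and are then scored visually from 0 (no effect) to 10 (complete control).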"}, "[2]": {"system": "broadleaf signalgrass (Brachiaria decumbens)", "method_in_brief": "as §1"}, "[3]": {"system": "cocklebur (Xanthium strumarium)", "method_in_brief": "as §1"}, "corn (Zea mays)": {"system": "corn (Zea mays)", "method_in_brief": "as §1"}, "[4]": {"system": "crabgrass (Digitaria sanguinalis)", "method_in_brief": "as §1"}, "[5]": {"system": "giant foxtail (Setaria faberii)", "method_in_brief": "as §1"}, "[6]": {"system": "momingglory (Ipomoea hederacea)", "method_in_brief": "as §1"}, "[7]": {"system": "pigweed (Amaranthus retroflexus)", "method_in_brief": "as §1"}, "[8]": {"system": "purple nutsedge (Cyperus rotundus)", "details": "for Plant response rating, Nutsedge: Postemergence; for Nutsedge plant response rating: Preemergence", "method_in_brief": "as §1"}, "soybean (Glycine max)": {"system": "soybean (Glycine max)", "method_in_brief": "as §1"}, "[9]": {"system": "sugar beet (Beta vulgaris)", "method_in_brief": "as §1"}, "[10]": {"system": "velvetleaf (Abutilon theophrasti)", "method_in_brief": "as §1"}, "[11]": {"system": "wheat (Triticum aestivum)", "method_in_brief": "as §1"}, "wild oat (Avena fatua)": {"system": "wild oat (Avena fatua)", "method_in_brief": "as §1"}}, "data": [{"smiles": "CCc1cnc(-c2ccc(C(F)(F)F)cc2)nc1Cc1cccc(C(F)(F)F)c1", "note": "[Compound 22]", "values": [{"measurement": "Plant response rating, Blackgrass", "setting": "[1]; Rate 62 g/ha, Postemergence", "result": 5}, {"measurement": "Blackgrass plant response rating", "setting": "[1]; Rate 62 g/ha, Preemergence", "result": 8}, {"measurement": "Plant response rating, Blackgrass", "setting": "[1]; Rate 125 g/ha, Postemergence", "result": 8}, {"measurement": "Blackgrass plant response rating", "setting": "[1]; Rate 125 g/ha, Preemergence", "result": 9}, {"measurement": "Plant response rating, Blackgrass", "setting": "[1]; Rate 250 g/ha, Postemergence", "result": 9}, {"measurement": "Plant response rating, Blackgrass", "setting": "[1]; Rate 250 g/ha, Preemergence", "result": 9}, {"measurement": "Plant response rating, B. signalgrass", "setting": "[2]; Rate 62 g/ha, Postemergence", "result": 5}, {"measurement": "B. signalgrass plant response rating", "setting": "[2]; Rate 62 g/ha, Preemergence", "result": 5}, {"measurement": "Plant response rating, B. signalgrass", "setting": "[2]; Rate 125 g/ha, Postemergence", "result": 7}, {"measurement": "B. signalgrass plant response rating", "setting": "[2]; Rate 125 g/ha, Preemergence", "result": 9}, {"measurement": "Plant response rating, B. signalgrass", "setting": "[2]; Rate 250 g/ha, Postemergence", "result": 7}, {"measurement": "Plant response rating, B. signalgrass", "setting": "[2]; Rate 250 g/ha, Preemergence", "result": 9}, {"measurement": "Plant response rating, Cocklebur", "setting": "[3]; Rate 62 g/ha, Postemergence", "result": 8}, {"measurement": "Cocklebur plant response rating", "setting": "[3]; Rate 62 g/ha, Preemergence", "result": 1}, {"measurement": "Plant response rating, Cocklebur", "setting": "[3]; Rate 125 g/ha, Postemergence", "result": 8}, {"measurement": "Cocklebur plant response rating", "setting": "[3]; Rate 125 g/ha, Preemergence", "result": 1}, {"measurement": "Plant response rating, Cocklebur", "setting": "[3]; Rate 250 g/ha, Postemergence", "result": 8}, {"measurement": "Plant response rating, Cocklebur", "setting": "[3]; Rate 250 g/ha, Preemergence", "result": 2}, {"measurement": "Plant response rating, Corn", "setting": "corn (Zea mays); Rate 62 g/ha, Postemergence", "result": 3}, {"measurement": "Corn plant response rating", "setting": "corn (Zea mays); Rate 62 g/ha, Preemergence", "result": 0}, {"measurement": "Plant response rating, Corn", "setting": "corn (Zea mays); Rate 125 g/ha, Postemergence", "result": 3}, {"measurement": "Corn plant response rating", "setting": "corn (Zea mays); Rate 125 g/ha, Preemergence", "result": 0}, {"measurement": "Plant response rating, Corn", "setting": "corn (Zea mays); Rate 250 g/ha, Postemergence", "result": 4}, {"measurement": "Plant response rating, Corn", "setting": "corn (Zea mays); Rate 250 g/ha, Preemergence", "result": 2}, {"measurement": "Plant response rating, Crabgrass", "setting": "[4]; Rate 62 g/ha, Postemergence", "result": 9}, {"measurement": "Crabgrass plant response rating", "setting": "[4]; Rate 62 g/ha, Preemergence", "result": 7}, {"measurement": "Plant response rating, Crabgrass", "setting": "[4]; Rate 125 g/ha, Postemergence", "result": 9}, {"measurement": "Crabgrass plant response rating", "setting": "[4]; Rate 125 g/ha, Preemergence", "result": 10}, {"measurement": "Plant response rating, Crabgrass", "setting": "[4]; Rate 250 g/ha, Postemergence", "result": 9}, {"measurement": "Plant response rating, Crabgrass", "setting": "[4]; Rate 250 g/ha, Preemergence", "result": 10}, {"measurement": "Plant response rating, Giant foxtail", "setting": "[5]; Rate 62 g/ha, Postemergence", "result": 6}, {"measurement": "Giant foxtail plant response rating", "setting": "[5]; Rate 62 g/ha, Preemergence", "result": 9}, {"measurement": "Plant response rating, Giant foxtail", "setting": "[5]; Rate 125 g/ha, Postemergence", "result": 6}, {"measurement": "Giant foxtail plant response rating", "setting": "[5]; Rate 125 g/ha, Preemergence", "result": 10}, {"measurement": "Plant response rating, Giant foxtail", "setting": "[5]; Rate 250 g/ha, Postemergence", "result": 8}, {"measurement": "Plant response rating, Giant foxtail", "setting": "[5]; Rate 250 g/ha, Preemergence", "result": 10}, {"measurement": "Plant response rating, Morningglory", "setting": "[6]; Rate 62 g/ha, Postemergence", "result": 10}, {"measurement": "Morningglory plant response rating", "setting": "[6]; Rate 62 g/ha, Preemergence", "result": 3}, {"measurement": "Plant response rating, Morningglory", "setting": "[6]; Rate 125 g/ha, Postemergence", "result": 10}, {"measurement": "Morningglory plant response rating", "setting": "[6]; Rate 125 g/ha, Preemergence", "result": 10}, {"measurement": "Plant response rating, Morningglory", "setting": "[6]; Rate 250 g/ha, Postemergence", "result": 10}, {"measurement": "Plant response rating, Morningglory", "setting": "[6]; Rate 250 g/ha, Preemergence", "result": 10}, {"measurement": "Plant response rating, Redroot pigweed", "setting": "[7]; Rate 62 g/ha, Postemergence", "result": 10}, {"measurement": "Redroot pigweed plant response rating", "setting": "[7]; Rate 62 g/ha, Preemergence", "result": 9}, {"measurement": "Plant response rating, Redroot pigweed", "setting": "[7]; Rate 125 g/ha, Postemergence", "result": 10}, {"measurement": "Redroot pigweed plant response rating", "setting": "[7]; Rate 125 g/ha, Preemergence", "result": 10}, {"measurement": "Plant response rating, Redroot pigweed", "setting": "[7]; Rate 250 g/ha, Postemergence", "result": 10}, {"measurement": "Plant response rating, Redroot pigweed", "setting": "[7]; Rate 250 g/ha, Preemergence", "result": 10}, {"measurement": "Plant response rating, Nutsedge", "setting": "[8]; Rate 62 g/ha", "result": 0}, {"measurement": "Nutsedge plant response rating", "setting": "[8]; Rate 62 g/ha", "result": 0}, {"measurement": "Plant response rating, Nutsedge", "setting": "[8]; Rate 125 g/ha", "result": 0}, {"measurement": "Nutsedge plant response rating", "setting": "[8]; Rate 125 g/ha", "result": 1}, {"measurement": "Plant response rating, Soybean", "setting": "soybean (Glycine max); Rate 62 g/ha, Postemergence", "result": 6}, {"measurement": "Soybean plant response rating", "setting": "soybean (Glycine max); Rate 62 g/ha, Preemergence", "result": 1}, {"measurement": "Plant response rating, Soybean", "setting": "soybean (Glycine max); Rate 125 g/ha, Postemergence", "result": 7}, {"measurement": "Soybean plant response rating", "setting": "soybean (Glycine max); Rate 125 g/ha, Preemergence", "result": 1}, {"measurement": "Plant response rating, Soybean", "setting": "soybean (Glycine max); Rate 250 g/ha, Postemergence", "result": 8}, {"measurement": "Plant response rating, Soybean", "setting": "soybean (Glycine max); Rate 250 g/ha, Preemergence", "result": 2}, {"measurement": "Plant response rating, Sugarbeets", "setting": "[9]; Rate 62 g/ha, Postemergence", "result": 10}, {"measurement": "Sugarbeets plant response rating", "setting": "[9]; Rate 62 g/ha, Preemergence", "result": 9}, {"measurement": "Plant response rating, Sugarbeets", "setting": "[9]; Rate 125 g/ha, Postemergence", "result": 10}, {"measurement": "Sugarbeets plant response rating", "setting": "[9]; Rate 125 g/ha, Preemergence", "result": 9}, {"measurement": "Plant response rating, Sugarbeets", "setting": "[9]; Rate 250 g/ha, Postemergence", "result": 10}, {"measurement": "Plant response rating, Sugarbeets", "setting": "[9]; Rate 250 g/ha, Preemergence", "result": 10}, {"measurement": "Plant response rating, Velvetleaf", "setting": "[10]; Rate 62 g/ha, Postemergence", "result": 8}, {"measurement": "Velvetleaf plant response rating", "setting": "[10]; Rate 62 g/ha, Preemergence", "result": 8}, {"measurement": "Plant response rating, Velvetleaf", "setting": "[10]; Rate 125 g/ha, Postemergence", "result": 8}, {"measurement": "Velvetleaf plant response rating", "setting": "[10]; Rate 125 g/ha, Preemergence", "result": 8}, {"measurement": "Plant response rating, Velvetleaf", "setting": "[10]; Rate 250 g/ha, Postemergence", "result": 9}, {"measurement": "Plant response rating, Velvetleaf", "setting": "[10]; Rate 250 g/ha, Preemergence", "result": 8}, {"measurement": "Plant response rating, Wheat", "setting": "[11]; Rate 62 g/ha, Postemergence", "result": 4}, {"measurement": "Wheat plant response rating", "setting": "[11]; Rate 62 g/ha, Preemergence", "result": 2}, {"measurement": "Plant response rating, Wheat", "setting": "[11]; Rate 125 g/ha, Postemergence", "result": 4}, {"measurement": "Wheat plant response rating", "setting": "[11]; Rate 125 g/ha, Preemergence", "result": 2}, {"measurement": "Plant response rating, Wheat", "setting": "[11]; Rate 250 g/ha, Postemergence", "result": 6}, {"measurement": "Plant response rating, Wheat", "setting": "[11]; Rate 250 g/ha, Preemergence", "result": 4}, {"measurement": "Plant response rating, Wild oats", "setting": "wild oat (Avena fatua); Rate 62 g/ha, Postemergence", "result": 5}, {"measurement": "Wild oats plant response rating", "setting": "wild oat (Avena fatua); Rate 62 g/ha, Preemergence", "result": 7}, {"measurement": "Plant response rating, Wild oats", "setting": "wild oat (Avena fatua); Rate 125 g/ha, Postemergence", "result": 6}, {"measurement": "Wild oats plant response rating", "setting": "wild oat (Avena fatua); Rate 125 g/ha, Preemergence", "result": 8}, {"measurement": "Plant response rating, Wild oats", "setting": "wild oat (Avena fatua); Rate 250 g/ha, Postemergence", "result": 8}, {"measurement": "Plant response rating, Wild oats", "setting": "wild oat (Avena fatua); Rate 250 g/ha, Preemergence", "result": 9}]}]}
